Measurements taken from PMC6934184, “Selective DNA-PKcs inhibition extends the therapeutic index of localized radiotherapy and chemotherapy” (The Journal of Clinical Investigation, 2019).

Biological target: T1, BRAF V599E (Homo sapiens, UniProt P15056, V600E)
T1 construct: purchased Thermo Fisher Scientific (Life Technologies) SelectScreen
Assay: SelectScreen Z'LYTE
Assay type: biochemical
Details: ATP 100 µM
Summary of the method: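 NU5455 was profiled across the SelectScreen Broad panel of kinase activity and binding assays. Z'LYTE reactions such as CSF1R ran at apparent Km ATP, while the Adapta CAMK1 assay used ATP listed as 10. Values are given as percent.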

T1 sequence (P15056 417-766 V600E limits assumed): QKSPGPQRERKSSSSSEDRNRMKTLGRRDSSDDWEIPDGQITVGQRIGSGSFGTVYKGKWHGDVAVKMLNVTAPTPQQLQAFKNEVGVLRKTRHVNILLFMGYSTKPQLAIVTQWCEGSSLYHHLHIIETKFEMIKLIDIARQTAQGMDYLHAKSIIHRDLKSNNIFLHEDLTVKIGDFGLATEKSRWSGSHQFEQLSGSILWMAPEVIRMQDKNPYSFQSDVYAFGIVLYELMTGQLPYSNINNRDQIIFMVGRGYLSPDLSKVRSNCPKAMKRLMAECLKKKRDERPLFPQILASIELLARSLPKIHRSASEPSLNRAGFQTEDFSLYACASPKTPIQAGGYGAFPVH

## CN(C(=O)CN1CCOCC1)c1ccc2sc3c(-c4cccc5c(=O)cc(N6CC7CCC(C6)O7)oc45)cccc3c2c1 [NU5455]
  inhibition at 1 µM: 18.3%
